These results are taken from US20230011869A1 (Hoffmann-La Roche Inc., priority 2018, published 2023).

Each structure is given as a SMILES string. Counter-ions that a name gives are not always drawn. Like-named read-outs stand apart in the source and are kept apart here.

The experiment concerns Acinetobacter baumannii ATCC17978. In words: Antimicrobial susceptibility testing: 90% growth inhibitory concentration (IC90) determination, Iso-Sensitest broth. It counts as cell-based. The method, then:
Antimicrobial Susceptibility Testing:
90% Growth Inhibitory Concentration (IC90) Determination
The in vitro antimicrobial activity of the compounds was determined according to the following procedure:
The assay used a 10-points Iso-Sensitest broth medium to measure quantitatively the in vitro activity of the compounds against Acinetobacter baumannii ATCC17978 and Acinetobacter baumannii ATCC17961.
Microtiter plates were incubated at 35±2° C.
Bacterial cell growth was determined with the measurement of optical density at λ=600 nm each 20 minutes over a time course of 16 h. Growth inhibition was calculated during the logarithmic growth of the bacterial cells with determination of the concentration inhibiting 50% (IC50) and 90% (IC90) of the growth.

[1] abbreviates: Acinetobacter baumannii, ATCC17978, 16 h, read-out: ATCC17978 IC90, 90% growth inhibitory concentration, Acinetobacter baumannii ATCC17978, Iso-Sensitest broth, OD 600 nm over 16 h.
Setting [2] is: 90% growth inhibitory concentration, Acinetobacter baumannii ATCC17978, Iso-Sensitest broth, OD 600 nm over 16 h, read-out: ATCC17978 IC90.

Take `Cc1cc(Nc2nccn3c(-c4ccc(OS(C)(=O)=O)c(F)c4F)cnc23)ccc1C(=O)N1CCN(C(=O)[C@@H]2C[C@@H](O)CN2)CC1` [Example 453, [2,3-difluoro-4-[8-[4-[4-[(2S,4R)-4-hydroxypyrrolidine-2-carbonyl]piperazine-1-carbonyl]-3-methylanilino]imidazo[1,2-a]pyrazin-3-yl]phenyl] methanesulfonate; formic acid]: the IC90 under setting [1] was found to be 4200 nM.

Turning to `COc1ccc(-c2cnc3c(Nc4ccc(C(=O)N5CCC(C(=O)NCC(N)CO)CC5)c(C)c4)nccn23)cc1F` (stereo not shown) [Example 101, N-(2-amino-3-hydroxypropyl)-1-(4-((3-(3-fluoro-4-methoxyphenyl)imidazo[1,2-a]pyrazin-8-yl)amino)-2-methylbenzoyl)piperidine-4-carboxamide hydrochloride], under setting [2], the IC90 came to 140 nM.

As to `COc1ccc(-c2cnc3c(Nc4ccc(C(=O)N5CCC(CN)CC5)c(C)c4)nccn23)c(Cl)c1` [Example 109, (4-(aminomethyl)piperidin-1-yl)(4-((3-(2-chloro-4-methoxyphenyl)imidazo[1,2-a]pyrazin-8-yl)amino)-2-methylphenyl)methanone], the IC90 under setting [2] is 510 nM.

Consider `COc1ccc(-c2cnc3c(Nc4ccc(C(=O)N5CCN(C(=O)NC[C@@H](C)N)CC5)c(C)c4)nccn23)c(F)c1F` [Example 152, N-[(2R)-2-aminopropyl]-4-[4-[[3-(2,3-difluoro-4-methoxy-phenyl)imidazo[1,2-a]pyrazin-8-yl]amino]-2-methyl-benzoyl]piperazine-1-carboxamide hydrochloride], for which the IC90 under setting [2] worked out at 110 nM.

For the compound `Cc1cc(Nc2nccn3c(-c4ccc(OC(F)F)cc4)cnc23)ccc1C(=O)N1CCN(C(=O)C2(C)CCNCC2)CC1` [Example 506, [4-[[3-[4-(difluoromethoxy)phenyl]imi-dazo[1,2-a]pyrazin-8-yl]amino]-2-methylphenyl]-[4-(4-methylpiperidine-4-carbonyl)piperazin-1-yl]methanone; hydrochloride], the IC90 under setting [1] turned out to be 510 nM.

`Cc1cc(Nc2nccn3c(-c4ccc(OCC#CCN)c(F)c4)cnc23)ccc1C(=O)N1CCC(CNC(=O)OC(C)(C)C)CC1` [Example 274, tert-butyl N-[[1-[4-[[3-[4-(4-aminobut-2-ynoxy)-3-fluorophenyl]imidazo[1,2-a]pyrazin-8-yl]amino]-2-methylbenzoyl]piperidin-4-yl]methyl]carbamate]: the IC90 under setting [2] is 2800 nM.

Regarding `N#CCOc1ccc(-c2cnc3c(Nc4ccc(C(=O)N5CCC(C(=O)OCC6CNCCN6)CC5)c(Cl)c4)nccn23)c(F)c1F` (stereo not shown) [Example 98, piperazin-2-ylmethyl 1-[2-chloro-4-[[3-[4-(cyanomethoxy)-2,3-difluoro-phenyl]imidazo[1,2-a]pyrazin-8-yl]amino]benzoyl]piperidine-4-carboxylate trifluoroacetate], the IC90 under setting [2] turned out to be 85 nM.

With `Cc1cc(Nc2nccn3c(-c4ccc(OC(F)F)cc4)cnc23)ccc1C(=O)N1CCN(C(=O)[C@@H]2C[C@@H](O)CN2)CC1` [Example 180, [4-[[3-[4-(difluoromethoxy)phenyl]imidazo[1,2-a]pyrazin-8-yl]amino]-2-methyl-phenyl]-[4-[(2S,4R)-4-hydroxypyrrolidine-2-carbonyl]piperazin-1-yl]methanone hydrochloride], under setting [2], the IC90 came to 270 nM.

Regarding `COc1ccc(-c2cnc3c(Nc4ccc(C(=O)N5CCN(C)CC5)c(C)c4)nccn23)cc1Cl` [Example 22, (4-((3-(3-chloro-4-methoxyphenyl)imidazo[1,2-a]pyrazin-8-yl)amino)-2-methylphenyl)(4-methylpiperazin-1-yl)methanone], under setting [2], the IC90 turned out to be 1300 nM.

Turning to `COc1ccc(-c2cnc3c(Nc4ccc(C(=O)N5CCNC(CN(C)C)C5)c(C)c4)nccn23)cc1F` (stereo not shown) [Example 254, [3-[(dimethylamino)methyl]pi-perazin-1-yl]-[4-[[3-(3-fluoro-4-methoxyphenyl)imidazo[1,2-a]pyrazin-8-yl]amino]-2-methylphenyl]methanone; hy-drochloride], the IC90 under setting [2] was 2100 nM.

Regarding `Cc1cc(Nc2nccn3c(-c4ccc(OCC#N)c(F)c4F)cnc23)ccc1C(=O)N1CCC(C(=O)N2CCN[C@@H](CO)C2)CC1` [Example 543, 2-[2,3-difluoro-4-[8-[4-[4-[(3R)-3-(hydroxymethyl)piperazine-1-carbonyl]piperidine-1-carbonyl]-3-methylanilino]imidazo[1,2-a]pyrazin-3-yl]phenoxy]acetonitrile; for-mic acid], the IC90 under setting [2] amounted to 99 nM.

`Cc1cc(Nc2nccn3c(-c4ccc(OS(C)(=O)=O)c(F)c4F)cnc23)ccc1C(=O)N1CCN(C(=O)C2CCNCC2)CC1` [Example 446, [2,3-difluoro-4-[8-[3-methyl-4-[4-(piperidine-4-carbonyl)piperazine-1-carbonyl]anilino]imidazo[1,2-a]pyrazin-3-yl]phenyl] methanesulfonate]: the IC90 under setting [2] turned out to be 2000 nM.

As to `CNCCCCNC(=O)C1CCN(C(=O)c2ccc(Nc3nccn4c(-c5ccc(OC)c(F)c5)cnc34)cc2C)CC1` [Example 51, 1-(4-((3-(3-fluoro-4-methoxyphenyl)imidazo[1,2-a]pyrazin-8-yl)amino)-2-methylbenzoyl)-N-(4-(methylamino)butyl)piperidine-4-carboxamide hydrochloride], the IC90 under setting [1] came out at 290 nM.

For the compound `CCNCC(=O)N1CCN(C(=O)c2ccc(Nc3nccn4c(-c5ccc(OC(F)F)cc5)cnc34)cc2C)CC1` [Example 314, 1-[4-[4-[[3-[4-(difluoromethoxy)phenyl]imi-dazo[1,2-a]pyrazin-8-yl]amino]-2-methylbenzoyl]piperazin-1-yl]-2-(ethylamino)ethanone; hydro-chloride], the IC90 under setting [1] was found to be 230 nM.

As to `Cc1cc(Nc2nccn3c(-c4ccc(OC(F)F)cc4)cnc23)ccc1C(=O)N1CCC2(COC2)C1` [Example 365, [4-[[3-[4-(difluoromethoxy)phenyl]imi-dazo[1,2-a]pyrazin-8-yl]amino]-2-methylphenyl]-(2-oxa-7-azaspiro[3.4]octan-7-yl)methanone], the IC90 under setting [1] stood at 550 nM.

Regarding `COc1ccc(-c2cnc3c(Nc4ccc(C(=O)N5CCC(C(=O)NCC6CNC6)CC5)c(C)c4)nccn23)c(F)c1F` [Example 75, hydrochloride], the IC90 under setting [1] was 160 nM.

Consider `Cc1cc(Nc2nccn3c(-c4ccc(OC(F)F)cc4)cnc23)ccc1C(=O)N1CCN(CCN)CC1` [Example 24, [4-(2-aminoethyl)piperazin-1-yl]-[4-[[3-[4-(difluoromethoxy)phenyl]imidazo[1,2-a]pyrazin-8-yl]amino]-2-methyl-phenyl]methanone], for which the IC90 under setting [2] was found to be 670 nM.

As for `COc1ccc(-c2cnc3c(Nc4ccc(C(=O)N5CCC(C(=O)NCCn6ccnc6)CC5)c(C)c4)nccn23)cc1F` [Example 418, 1-[4-[[3-(3-fluoro-4-methoxyphenyl)imidazo[1,2-a]pyrazin-8-yl]amino]-2-methylbenzoyl]-N-(2-imidazol-1-ylethyl)piperidine-4-carboxamide], the IC90 under setting [2] came out at 1000 nM.

For the compound `Cc1cc(Nc2nccn3c(-c4ccc(OC(F)F)cc4)cnc23)ccc1C(=O)N1CCC(C(=O)N[C@@H]2C(O)O[C@H](CO)[C@@H](O)[C@@H]2O)CC1` (mixture of isomers) [Example 351, 1-[4-[[3-[4-(difluoromethoxy)phenyl]imi-dazo[1,2-a]pyrazin-8-yl]amino]-2-methylbenzoyl]-N-[rac-(3R,4S,5R,6S)-2,4,5-trihydroxy-6-(hydroxymethyl)oxan-3-yl]piperidine-4-carboxamide], the IC90 under setting [1] came out at 720 nM.
